Test results from patent US7253177B2, “Synthesis and antimalarial activity of pyrrolo[3,2-f]quinazoline-1,3-diamine derivatives” (United States of America as Represented by the Secretary of …, priority 2004, dated 2007).
Values after ≈ are worked out from the molar mass of the structure shown. Where two headings read alike, the source gives them in different places.

What was measured:
[1] = mice; cited from earlier work
[2] = Solubility in common organic solvents and water; type: physicochemical
[3] = tested on: Plasmodium berghei (KBG-173 strain); type: in vivo; conditions: mice, oral
Procedure: (§1) B. Antimalarial Activities: (a). In Vitro Antimalarial Studies. The in vitro assays were conducted by using a modification of the semiautomated microdilution technique of Desjardins et al and Chulay et al.. Four P. falciparum malaria parasite clones, from CDC Indochina III (W-2), CDC Sierra Leone I (D-6), Southeast Asia Isolates (TM91C235) and RCS (Isolates from Brazil) were utilized in susceptibility testing. They were derived by direct visualization and micromanipulation from patient isolates. The W-2 clone is susceptible to mefloquine but resistant to chloroquine, sulfadoxine, pyrimethamine, and quinine, whereas the D-6 clone is naturally resistant to mefloquine but susceptible to chloroquine, sulfadoxine, pyrimethamine and quinine. Test compounds were initially dissolved in DMSO and diluted 400 fold in RPMI 1640 culture medium supplemented with 25 mM Hepes, 32 mM NaHCO3 and 10% Albumax I (Gibco BRL, Grand Island, N.Y.). These solutions were subsequently serially diluted two-fold with a Biomek 1000 (Beckman, Fullerton, Calif.) over 11 different concentrations. The parasites were exposed to serial dilutions of each compound for 48 hrs and incubated at 37° C. with 5% O2, 5% CO2 and 90% N2 prior to the addition of [^3H]hypoxanthine. After a further incubation of 18 hrs, parasite DNA was harvested from each microtiter well using Packard Filtermate 196 Harvester (Meriden, Conn.) onto glass filters. Uptake of [^3H]hypoxanthine was measured with a Packard Topcount Scintillation. Concentration-response data were analyzed by a non-linear regression logistic dose response model and the IC50 values (50% inhibitory concentrations) for each compound were calculated. (Table 3). (b). In Vivo Antimalarial Studies against P. berghei in mice: The in vivo efficacy of the artelinic acid analogs were determined in a modified Thompson test. This test measures the survivability of mice and parasitemia clearance following administration of drug on days 3-5 post infection. In brief, 5×10^6 P. berghei-infected erythrocytes (KBG-173 strain) were inoculated intraperitoneally to female mice that weighed 24-30 g. By day three post-infection, parasitemia ranged from 1.0-3.7%. Each drug, dissolved in 5% sodium bicarbonate, was administered PO twice daily from day 3-5 post-infection. Total doses for each drug ranged from 1.5-384 mg/kg with 8 mice included in each dosage group. The percent suppression of parasitemia in the treated mice compared to the untreated controls was determined for each test compound; the SD-50 (fifty percent suppression dose) and SD-90 were determined from a non-linear regression logistic dose response fit at day 6 parasitemia data. Survival of mice to day 60 post-infection was considered a cure (C). Compounds were considered active (A) when the survival time of the treated mice was greater than twice the control mice, i.e., 12-14 day (Table 4-5). (c). Sporozoite Induced Test Each compound is ground with a mortar & pestle and suspended in 0.5% hydroxyethylcellulose—0.1% Tween 80 for compounds to be administered PO and those given SC are suspended in peanut oil. Each compound is prepared at 3 different dose levels as requested by WRAIR. Compounds are administered either PO or SC to mice once 4 hr before inoculation of sporozoites. Four-week-old male CD-1 mice, purchased from Charles River and weighing 16-17 g, are placed 5 per cage and allowed to acclimate for 4 days before being treated and then inoculated with sporozoites. They are fed food and water ad-lib and maintained at 76° F. with 12 hr light and 12 hr darkness. The cages and water bottles are changed biweekly. The mice are weighed on Days 0, 3 and 6 then biweekly when blood films are taken. Plasmodium yoelii (17×) is used to infect mice that will be used to infect the mosquitoes. Mice are given a single dose of test compound 4 hr before being inoculated intraperitoneally with 2.5×10^5 sporozoites of Plasmodium yoelii on Day 0. […]

[4] = Aotus monkey; cited from earlier work
Plasmodium berghei = assay: Antimalarial activity against Plasmodium berghei in mice by subcutaneous injection; type: in vivo
[5] = tested on: Plasmodium falciparum TM91C235 (Southeast Asia Isolates); assay: In vitro antimalarial study, [3H]hypoxanthine uptake, TM91C235 clone; type: cell-based; conditions: Plasmodium falciparum, read-out: IC50 TM91C235
Procedure: as §1

[6] = tested on: Plasmodium falciparum RCS (Isolates from Brazil); assay: In vitro antimalarial study, [3H]hypoxanthine uptake, RCS clone; type: cell-based; conditions: Plasmodium falciparum; P. falciparum RCS clone
Procedure: as §1

[7] = tested on: Plasmodium falciparum W-2 clone (CDC Indochina III); assay: In vitro antimalarial study, [3H]hypoxanthine uptake, W-2 clone; type: cell-based; conditions: Plasmodium falciparum, read-out: IC50 W-2
Procedure: as §1

P. berghei = conditions: rodent model; cited from earlier work
[8] = tested on: Plasmodium falciparum D-6 clone (CDC Sierra Leone I); assay: In vitro antimalarial study, [3H]hypoxanthine uptake, D-6 clone; type: cell-based; conditions: Plasmodium falciparum, read-out: IC50 D-6
Procedure: as §1

P. falciparum = conditions: background, reported; cited from earlier work
[9] = Death rates after single intragastric treatment in rats; type: in vivo; conditions: for Day of Death: number of deaths: rats
[10] = tested on: D-6, RCS, W-2 and TM91C235 clones of Plasmodium falciparum; assay: In vitro tests against D-6, RCS, W-2 and TM91C235 clones; type: cell-based; conditions: sensitive and drug resistant P. falciparum cell lines
Procedure: B. Antimalarial Activities: (a). In Vitro Antimalarial Studies. The in vitro assays were conducted by using a modification of the semiautomated microdilution technique of Desjardins et al and Chulay et al.. Four P. falciparum malaria parasite clones, from CDC Indochina III (W-2), CDC Sierra Leone I (D-6), Southeast Asia Isolates (TM91C235) and RCS (Isolates from Brazil) were utilized in susceptibility testing. They were derived by direct visualization and micromanipulation from patient isolates. […] Uptake of [^3H]hypoxanthine was measured with a Packard Topcount Scintillation. Concentration-response data were analyzed by a non-linear regression logistic dose response model and the IC50 values (50% inhibitory concentrations) for each compound were calculated. […] In Vivo Antimalarial Studies against P. berghei in mice: The in vivo efficacy of the artelinic acid analogs were determined in a modified Thompson test. […] The percent suppression of parasitemia in the treated mice compared to the untreated controls was determined for each test compound; the SD-50 (fifty percent suppression dose) and SD-90 were determined from a non-linear regression logistic dose response fit at day 6 parasitemia data. […]

For `Nc1nc(N)c2c(ccc3c2ccn3Cc2ccccc2C(F)(F)F)n1` [Compound 1, 7-[(2-Trifluoromethyl-phenyl)methyl]-7H-pyrrolo[3,2-f]quinazoline-1,3-diamine, reference compound], the “subcutaneous LD50” value [1] is listed as “less than 20 mg/kg”, the solubility [2] is listed as “sparingly soluble” and the “# Mice Alive Day 30/Total” value ([3]; 40 mg/kg/day) is listed as 4/5. For the same compound, the “# Mice Dead/Day Died” value ([3]; 40 mg/kg/day) was 1/17, the “# Mice Alive Day 30/Total” value ([3]; 20-1.25 mg/kg/day) was 5/5 and the “# Mice Dead/Day Died” value ([3]; 20-1.25 mg/kg/day) was “none”. For the same compound, the “dose producing deaths / oral lethal dose” value [4] was “less than 2 mg/kg”, the “# Mice Alive Day 31/Total” value (Plasmodium berghei; 20 mg/kg/day) was 5/7 and the “# Mice Alive Day 31/Total” value (Plasmodium berghei; 40 mg/kg/day) was 0/7. For the same compound, the “# Mice Alive Day 31/Total” value (Plasmodium berghei; 10-2.5 mg/kg/day) was 7/7, the “# Mice Dead/Day Died” value (Plasmodium berghei; 10-2.5 mg/kg/day) was “none” and the IC50 [5] was 1.22 ng/mL (≈ 3.41 nM). For the same compound, the IC50 [6] was 0.357 ng/mL (≈ 0.999 nM), the IC50 [7] was 0.445 ng/mL (≈ 1.25 nM) and the “100% curative oral dose against P. berghei” value (P. berghei) was under 0.1 to 4 mg/kg. The IC50 [8] was 0.0191 ng/mL (≈ 0.0535 nM), the “IC50 against P. falciparum in vitro” value (P. falciparum) was about 0.01 ng/mL (≈ 0.028 nM) and the Deaths ([9]; rats n=4, single intragastric 25 mg/kg in 1% CMC suspension) was 0/4. The Deaths ([9]; rats n=4, single intragastric 50 mg/kg in 1% CMC suspension) was 0/4, the Deaths ([9]; rats n=4, single intragastric 100 mg/kg in 1% CMC suspension) was 0/4 and the Deaths ([9]; rats n=4, single intragastric 200 mg/kg in 1% CMC suspension) was 1/4. For the same compound, the Deaths ([9]; rats n=4, single intragastric 400 mg/kg in 1% CMC suspension) was 3/4, the “Day of Death: number of deaths” value ([9]; 200 mg/kg, fourth cell after Deaths (day uncertain)) was 1 and the “Day of Death: number of deaths” value ([9]; 400 mg/kg, second cell after Deaths (day uncertain)) was 1. For the same compound, the “Day of Death: number of deaths” value ([9]; 400 mg/kg, third cell after Deaths (day uncertain)) was 2.

In the case of `CCN(CC)c1nc(N(CC)CC)c2c(ccc3c2ccn3Cc2ccccc2C(F)(F)F)n1` [Compound 5, 1,3-bis-(diethylamino)-7-(2-trifluromethyl)benzyl-7H-pyrrolo[3,2-f]quinazoline], the “in vitro activity relative to lead compound 1” value [10] is reported as “over ten thousand fold less active”, the “oral dose range giving 100% cure against P. berghei” value ([3]; Thompson test) is reported as 10 to 80 mg/kg and the “# Mice Alive Day 30/Total” value ([3]; 160 mg/kg/day) is reported as 4/8. For the same compound, the “# Mice Alive Day 30/Total” value ([3]; 80-10 mg/kg/day) was 8/8, the “# Mice Dead/Day Died” value ([3]; 80-10 mg/kg/day) was “none” and the IC50 [7] was 104 ng/mL (≈ 222 nM). It also gave an IC50 [8] of 46 ng/mL (≈ 98 nM).
